“And” between values parts separate entries of the source, which are not always exact repeats. Equal values may be shown once.
Key:
[1] = test system: OVCAR8 xenografted tumor tissues; assay: TUNEL assay in intraperitoneal xenografted tumor tissues, OVCAR8; format: in vivo, human EOC cells in BALB/c-Nude mice; settings: for TUNEL+ cell (%): #1-#6; for TUNEL assay: animal model OVCAR8
Protocol: (§1) In the intraperitoneal tumor model, 1 × 10^6 of the indicated cells stably expressing luciferase were injected intraperitoneally into the mice. Treatment with saline (Vehicle), CDDP (5 mg/kg, 3 times per week for 1 week), CBP1 (10 mg/kg, once in 2 days), or a combination of CDDP (5 mg/kg, 3 times per week for 1 week) and CBP1 (10 mg/kg, once in 2 days) was initiated when the bioluminescence signal reached 2 × 10^7 p/s/cm^2/sr for 6 weeks of continuous treatment cycles. The mice were sacrificed when they became moribund, as determined by an observer blinded to the treatment. Finally, their tumors were excised for qRT‐PCR and Western blotting.
TUNEL Assay: The TUNEL staining procedure was conducted on the DeadEnd Fluorometric TUNEL System (#G3250; Promega), according to the manufacturer’s instructions. In brief, paraffin-embedded sections were baked at 65°C for 60 min, followed by three washes in a xylene bath. The sections were then washed in a series of absolute ethanol, 95% ethanol, and 70% ethanol, and finally, in PBS. Then, each section was treated with proteinase K at 37°C for 30 min and washed three times with PBS. Thereafter, the sections were incubated with […] (containing Biotin-11-dUTP and TdT Enzyme) at 37 ℃ for 1 h in the dark, followed by three PBS washes. The samples were subsequently incubated with streptavidin–fluorescein at 37 ℃ for 30 min in the dark, followed by three washes with PBS. DAPI was used to stain the nucleus. Finally, the experimental outcomes were observed under a fluorescence microscope, and the percentages of TUNEL-positive cells were quantified from 10 randomly selected fields.

OVCAR8 cells = assay: Survival of intraperitoneal tumor-bearing nude mice, OVCAR8; format: in vivo, human EOC cells in BALB/c-Nude mice; set-up: key to Survival status: 0: Alive; 1: Dead; settings: for Survival status / Survival time (Days after CDDP treatment): Balb/c Nude mice; for Survival time (Days after CDDP treatment): >= means alive at this day
Description: Subsequently, we selected 4 representative EOC cell lines (Figure S1F,G, Supporting Information) and validated the role of SPC25 in mediating platinum resistance in EOC through a series of in vitro and in vivo experiments. […] To further establish an EOC mouse model, we intraperitoneally injected BALB/c‐Nude mice with EOC cells with stable luciferase expression. CDDP treatment (three times per week, a week as a cycle) was initiated when the bioluminescence signal reached 2 × 10^7 p/s/cm^2/sr.
as §1

[NH2][Pt]([NH2])([Cl])[Cl] [CDDP, cisplatin]
TUNEL+ cell (%) ([1]; OVCAR8 sh-SPC25#1, CDDP-treated mice): 27.13% and 29.66% and 28.67% and 22.53% and 32.03% and 26.06% | TUNEL+ cell (%) ([1]; OVCAR8 sh-Scramble, CDDP-treated mice): 5.89% and 11.46% and 4.76% and 9.62% and 7.34% and 8.41% | TUNEL assay ([1]; animal #1): 10.02% | TUNEL assay ([1]; animal #2): 8.97% | TUNEL assay ([1]; animal #3): 6.23% | TUNEL assay ([1]; animal #4): 11.92% | TUNEL assay ([1]; animal #5): 7.56% | TUNEL assay ([1]; animal #6): 8.03% | TUNEL assay ([1]; animal #7): 7.63% | Survival status (OVCAR8 cells; at the day of E151, animal 1): 1 | Survival status (OVCAR8 cells; at the day of E152, animal 2): 1 | Survival status (OVCAR8 cells; at the day of E153, animal 3): 1 | Survival status (OVCAR8 cells; at the day of E154, animal 4): 1 | Survival status (OVCAR8 cells; at the day of E155, animal 5): 1 | Survival status (OVCAR8 cells; at the day of E156, animal 6): 1 | Survival status (OVCAR8 cells; at the day of E157, animal 7): 1 | Survival time (Days after CDDP treatment) (OVCAR8 cells; animal 1): 59 days | Survival time (Days after CDDP treatment) (OVCAR8 cells; animal 2): 50 days | Survival time (Days after CDDP treatment) (OVCAR8 cells; animal 3): 52 days | Survival time (Days after CDDP treatment) (OVCAR8 cells; animal 4): 56 days | Survival time (Days after CDDP treatment) (OVCAR8 cells; animal 5): 57 days | Survival time (Days after CDDP treatment) (OVCAR8 cells; animal 6): 60 days | Survival time (Days after CDDP treatment) (OVCAR8 cells; animal 7): 61 days | Survival, days after CDDP treatment (OVCAR8 cells; OVCAR8 sh-SPC25#1, status 0, individual mice): 63 days and 79 days and 89 days | Survival, days after CDDP treatment (OVCAR8 cells; OVCAR8 sh-SPC25#1, status 1, individual mice): 72 days and 59 days and 60 days | Survival, days after CDDP treatment (OVCAR8 cells; OVCAR8 sh-Scramble, status 1, individual mice): 54 days and 50 days and 55 days and 53 days and 57 days
